Tests used:
[1] = physchem
[2] = lipid pKa of cationic lipids

CCCCC/C=C\C/C=C\CCCCCCCCC1(CCCCCCCC/C=C\C/C=C\CCCCC)OCC(CCN(C)C)O1 (centres unmarked) [DLin-KC2-DMA, 2,2-Dilinoleyl-4-(2-dimethylaminoethyl)-[1,3]-dioxolane]
pKa [1]: ~6.7

CCCCC/C=C\C/C=C\CCCCCCCCOCC(CN(C)C)OCCCCCCCC/C=C\C/C=C\CCCCC (centres unmarked) [DLinDMA]
lipid pKa [2]: 6.8
